Activity calls are given as the source filed them. The rule behind the calls is not given here.
Tested on: CCRIS mutagenicity, Ames/micronucleus/aberration tests
Test: CCRIS mutagenicity studies

Measured: mutagenic call

CCN(CC)N=O
active: End Point: IN VITRO MICRONUCLEUS, Test System: AHH-1 CELLS, Metabolic Activation: NONE active; positive | End Point: IN VITRO MICRONUCLEUS, Test System: MCL-5 CELLS, Metabolic Activation: NONE active; positive | Test System: AMES SALMONELLA TYPHIMURIUM, Strain/Indicator: TA98, Metabolic Activation: HAMSTER, LIVER, S-9, AROCLOR 1254 (30%), Method: PREINCUBATION active; positive | Test System: AMES SALMONELLA TYPHIMURIUM, Strain/Indicator: TA98, Metabolic Activation: NONE, Method: PREINCUBATION active; positive | Test System: AMES SALMONELLA TYPHIMURIUM, Strain/Indicator: TA98, Metabolic Activation: RAT LIVER S-9, AROCLOR, Method: PREINCUBATION active; positive | Test System: AMES SALMONELLA TYPHIMURIUM, Strain/Indicator: TA98, Metabolic Activation: RAT, LIVER, S-9, AROCLOR 1254, Method: STANDARD PLATE active; positive | Test System: AMES SALMONELLA TYPHIMURIUM, Strain/Indicator: TA98, Metabolic Activation: RAT, LIVER, S-9, KC500 OR PHENOBARBITAL, Method: LIQUID SUSPENSION active; positive | Test System: AMES SALMONELLA TYPHIMURIUM, Strain/Indicator: TA98, Metabolic Activation: RAT, LIVER, S-9, PHENOBARBITAL, Method: PREINCUBATION active; positive | Test System: AMES SALMONELLA TYPHIMURIUM, Strain/Indicator: TA98NR, Metabolic Activation: RAT LIVER S-9, AROCLOR, Method: PREINCUBATION active; positive | Test System: AMES SALMONELLA TYPHIMURIUM, Strain/Indicator: TA100, Metabolic Activation: HAMSTER, LIVER, S-9, AROCLOR 1254 (30%), Method: PREINCUBATION active; positive | Test System: AMES SALMONELLA TYPHIMURIUM, Strain/Indicator: TA100, Metabolic Activation: MOUSE, INTACT UROTHELIAL CELLS, Method: FLUCTUATION TEST active; positive | Test System: AMES SALMONELLA TYPHIMURIUM, Strain/Indicator: TA100, Metabolic Activation: MOUSE, KIDNEY, S-9, Method: PREINCUBATION active; positive | Test System: AMES SALMONELLA TYPHIMURIUM, Strain/Indicator: TA100, Metabolic Activation: MOUSE, LIVER, S-9, Method: PREINCUBATION active; positive | Test System: AMES SALMONELLA TYPHIMURIUM, Strain/Indicator: TA100, Metabolic Activation: RAT LIVER S-9, AROCLOR, Method: PREINCUBATION active; positive | Test System: AMES SALMONELLA TYPHIMURIUM, Strain/Indicator: TA100, Metabolic Activation: RAT, INTACT UROTHELIAL CELLS, Method: FLUCTUATION TEST active; positive | Test System: AMES SALMONELLA TYPHIMURIUM, Strain/Indicator: TA100, Metabolic Activation: RAT, LIVER, S-9, AROCLOR 1254, Method: PREINCUBATION active; positive | Test System: AMES SALMONELLA TYPHIMURIUM, Strain/Indicator: TA100, Metabolic Activation: RAT, LIVER, S-9, KC500 OR PHENOBARBITAL, Method: LIQUID SUSPENSION active; positive | Test System: AMES SALMONELLA TYPHIMURIUM, Strain/Indicator: TA100, Metabolic Activation: RAT, LIVER, S-9, PHENOBARBITAL, Method: PREINCUBATION active; positive | Test System: AMES SALMONELLA TYPHIMURIUM, Strain/Indicator: TA104, Metabolic Activation: RAT, LIVER, S-9, AROCLOR 1254, Method: PREINCUBATION active; positive | Test System: AMES SALMONELLA TYPHIMURIUM, Strain/Indicator: TA1530, Metabolic Activation: RAT, LIVER, S-9, PHENOBARBITAL, Method: PREINCUBATION active; positive | Test System: AMES SALMONELLA TYPHIMURIUM, Strain/Indicator: TA1530, Metabolic Activation: RAT, LIVER, S-9, Method: STANDARD PLATE active; positive | Test System: AMES SALMONELLA TYPHIMURIUM, Strain/Indicator: TA1535, Metabolic Activation: RAT, LIVER, HEPATOCYTES, Method: PREINCUBATION active; positive | Test System: AMES SALMONELLA TYPHIMURIUM, Strain/Indicator: TA1535, Metabolic Activation: RAT, LIVER, S-9, AROCLOR 1254, Method: PREINCUBATION active; positive | Test System: AMES SALMONELLA TYPHIMURIUM, Strain/Indicator: TA1535, Metabolic Activation: RAT, LIVER, S-9, AROCLOR, Method: PREINCUBATION active; positive | Test System: AMES SALMONELLA TYPHIMURIUM, Strain/Indicator: TA1535, Metabolic Activation: RAT, LIVER, S-9, SODIUM PHENOBARBITONE, Method: PREINCUBATION active; positive | Test System: AMES SALMONELLA TYPHIMURIUM, Strain/Indicator: TA1535, Metabolic Activation: RAT, LIVER, S-9, Method: PREINCUBATION active; positive | Test System: AMES SALMONELLA TYPHIMURIUM, Strain/Indicator: TA1975, Metabolic Activation: RAT, LIVER, S-9, AROCLOR 1254, Method: PREINCUBATION active; positive
inactive: Test System: AMES SALMONELLA TYPHIMURIUM, Strain/Indicator: TA97, Metabolic Activation: NONE, Method: PREINCUBATION inactive; negative | Test System: AMES SALMONELLA TYPHIMURIUM, Strain/Indicator: TA97, Metabolic Activation: RAT LIVER S-9, AROCLOR, Method: PREINCUBATION inactive; negative | Test System: AMES SALMONELLA TYPHIMURIUM, Strain/Indicator: TA98, Metabolic Activation: RAT, LIVER, S-9, AROCLOR 1254 (30%), Method: PREINCUBATION inactive; negative | Test System: AMES SALMONELLA TYPHIMURIUM, Strain/Indicator: TA98NR, Metabolic Activation: NONE, Method: PREINCUBATION inactive; negative | Test System: AMES SALMONELLA TYPHIMURIUM, Strain/Indicator: TA100, Metabolic Activation: MOUSE, KIDNEY, S-9, PHENETHYL ISOTHIOCYANATE, Method: PREINCUBATION inactive; negative | Test System: AMES SALMONELLA TYPHIMURIUM, Strain/Indicator: TA100, Metabolic Activation: MOUSE, LIVER, S-9, PHENETHYL ISOTHIOCYANATE, Method: PREINCUBATION inactive; negative | Test System: AMES SALMONELLA TYPHIMURIUM, Strain/Indicator: TA100, Metabolic Activation: MOUSE, LUNG, S-9, PHENETHYL ISOTHIOCYANATE, Method: PREINCUBATION inactive; negative | Test System: AMES SALMONELLA TYPHIMURIUM, Strain/Indicator: TA100, Metabolic Activation: MOUSE, LUNG, S-9, Method: PREINCUBATION inactive; negative | Test System: AMES SALMONELLA TYPHIMURIUM, Strain/Indicator: TA100, Metabolic Activation: NONE, Method: STANDARD PLATE inactive; negative | Test System: AMES SALMONELLA TYPHIMURIUM, Strain/Indicator: TA100, Metabolic Activation: RABBIT, LIVER, S-9, Method: STANDARD PLATE inactive; negative | Test System: AMES SALMONELLA TYPHIMURIUM, Strain/Indicator: TA100, Metabolic Activation: RABBIT, LUNG, S-9, Method: STANDARD PLATE inactive; negative | Test System: AMES SALMONELLA TYPHIMURIUM, Strain/Indicator: TA100, Metabolic Activation: RABBIT, NASAL, S-9, Method: STANDARD PLATE inactive; negative | Test System: AMES SALMONELLA TYPHIMURIUM, Strain/Indicator: TA100, Metabolic Activation: RAT, LIVER, S-9, AROCLOR 1254 (30%), Method: PREINCUBATION inactive; negative | Test System: AMES SALMONELLA TYPHIMURIUM, Strain/Indicator: TA100, Metabolic Activation: RAT, LUNG, S-9, Method: STANDARD PLATE inactive; negative | Test System: AMES SALMONELLA TYPHIMURIUM, Strain/Indicator: TA100, Metabolic Activation: RAT, NASAL, S-9, Method: STANDARD PLATE inactive; negative | Test System: AMES SALMONELLA TYPHIMURIUM, Strain/Indicator: TA100, Metabolic Activation: S-9, Method: PREINCUBATION inactive; negative | Test System: AMES SALMONELLA TYPHIMURIUM, Strain/Indicator: TA102, Metabolic Activation: NONE, Method: PREINCUBATION inactive; negative | Test System: AMES SALMONELLA TYPHIMURIUM, Strain/Indicator: TA102, Metabolic Activation: RAT LIVER S-9, AROCLOR, Method: PREINCUBATION inactive; negative | Test System: AMES SALMONELLA TYPHIMURIUM, Strain/Indicator: TA1535, Metabolic Activation: NONE, Method: PREINCUBATION inactive; negative | Test System: AMES SALMONELLA TYPHIMURIUM, Strain/Indicator: TA1535, Metabolic Activation: S-9, Method: PREINCUBATION inactive; negative | Test System: AMES SALMONELLA TYPHIMURIUM, Strain/Indicator: TA1535ER, Metabolic Activation: NONE, Method: STANDARD PLATE inactive; negative

Reference: PubChem BioAssay AID1259407 (Chemical Carcinogenesis Research Information System (CCRIS), 2018)
